Assay results from ChEMBL document CHEMBL1122602, “2-Acetylpyridine thiosemicarbazones. 8. Derivatives of 1-acetylisoquinoline as potential antimalarial agents” (1984).

Tests used:
Format in all cases: functional
Mus musculus [1] = assay: Antimalarial activity was assessed against Plasmodium berghei in mice (Mus musculus) at 160 mg/kg dosage of the compound; Toxic
Mus musculus [2] = assay: Antimalarial activity was assessed against Plasmodium berghei in mice (Mus musculus) at 640 mg/kg dosage of the compound; Toxic
Mus musculus [3] = assay: Antimalarial activity was assessed against Plasmodium berghei in mice (Mus musculus) at 320 mg/kg dosage of the compound; Toxic
Mus musculus [4] = assay: Antimalarial activity was assessed against Plasmodium berghei in mice (Mus musculus) at 640 mg/kg dosage of the compound: Toxic
Mus musculus [5] = assay: Antimalarial activity was assessed against Plasmodium berghei in mice (Mus musculus). at 320 mg/kg dosage of the compound; Toxic

Row | Compound | toxic deaths (Mus musculus [1]) [count] | toxic deaths (Mus musculus [2]) [count] | toxic deaths (Mus musculus [3]) [count] | toxic deaths (Mus musculus [4]) [count] | toxic deaths (Mus musculus [5]) [count]
1 | C/C(=N\N=C(/S)N(C)C1CCCCC1)c1nccc2ccccc12 | 1 | 5 | – | – | –
2 | C/C(=N\N=C(/S)N1CC(C)OC(C)C1)c1nccc2ccccc12 (stereo unspecified) | – | 2 | 1 | – | –
3 | C/C(=N\N=C(/S)N1CCCCCC1)c1nccc2ccccc12 | – | 4 | – | – | –
4 | C/C(=N\N=C(/S)N(C)C)c1nccc2ccccc12 | – | 5 | 5 | – | –
5 | CC(N/N=C(\S)N1CCN(c2ccccn2)CC1)c1nccc2ccccc12 (stereo unspecified) | – | 1 | 2 | – | –
6 | CC(N/N=C(\S)N(C)C)c1nccc2ccccc12 (stereo unspecified) | 1 | 5 | – | – | –
7 | CC1CCN(/C(S)=N/NC(C)c2nccc3ccccc23)CC1 (stereo unspecified) | – | 5 | 5 | – | –
8 | CC(N/N=C(\S)N1CCCCCC1)c1nccc2ccccc12 (stereo unspecified) | – | 2 | 3 | – | –
9 | CC(N/N=C(\S)N(C)C1CCCCC1)c1nccc2ccccc12 (stereo unspecified) | 2 | 3 | 3 | – | –
10 | CC(N/N=C(\S)N1CCCC1)c1nccc2ccccc12 (stereo unspecified) | – | 4 | 2 | – | –
11 | C/C(=N\N=C(/S)N1CCC(C)CC1)c1nccc2ccccc12 | 1 | – | 5 | 5 | –
12 | C/C(=N\N=C(/S)N1CCCC1)c1nccc2ccccc12 | – | 5 | – | – | –
13 | CC1CN(/C(S)=N/NC(C)c2nccc3ccccc23)CC(C)O1 (stereo unspecified) | – | 1 | – | – | 1
